Publication PMC8069289 (Molecules, 2021)
pIC50: −log10 of the molar value. Entries after “also recorded” stand apart in the source; their conditions may differ.

Tests used:
Drosophila melanogaster = experiment: Antigenotoxicity, wing spot test, combined treatment with hydrogen peroxide; type: in vivo; design: key to Total Spots, statistical diagnosis (Kastenbaum-Bowman test): * (positive); Δ (negative); β (inconclusive) vs. respective positive control
Description: All inconclusive and positive results (p > 0.05) were analysed with the nonparametric U-test of Mann, Whitney and Wilcoxon (α = β = 0.05). Anter et al. described the antigenotoxicity method conducted in D. melanogaster. […] Single and twin spots per wing were also recorded and compared with the concurrent negative control as described before. Finally, the inhibition percentages (IP) for the combined treatments were calculated as described by Abraham: IP = [(genotoxin alone-combined treatment)/genotoxin alone] × 100.

HL-60 cells [1] = experiment: Cytotoxicity assay, Trypan blue exclusion test; type: cell-based, human; conditions: HL-60, 72 h
Description: Promyelocytic human leukaemia (HL-60) immortal cells originated from a person suffering myeloid leukaemia were grown as suspension cultures in RPMI-1640 medium ([…], Sigma-Aldrich, St. Louis, MO, USA) supplemented with 10% heat-inactivated foetal bovine serum (S01805, Linus, Madrid, Spain), L-glutamine 2 mM (G7513, Sigma-Aldrich, St. Louis, MO, USA) and 1× antibiotic-antimycotic solution from a 100× stock solution containing 10,000 units of penicillin, 10 mg of streptomycin and 25 μg of amphotericin B per mL ([…], Sigma-Aldrich, St. Louis, MO, USA). Cells were incubated at 37 °C in a 80% humidified atmosphere 5% CO2. Cultures were plated at 2.5 × 10^4 cells/mL density in 10 mL culture bottles and passed every 2 days. Trypan blue exclusion test was used to determine the cell viability exerted by the assayed compounds, according to our standard procedures. […] After culture, cells were stained with a 1:1 volume ratio of Trypan blue dye (T8154, Sigma-Aldrich, St. Louis, MO, USA) and counted in a Neubauer chamber at 100× magnification. The survival percentage of each treatment compared with the control was recorded in three independent replicates. Data are expressed as mean ± standard deviation of the mean (SEM).

HL-60 cells [2] = experiment: Internucleosomal DNA fragmentation; type: cell-based, human; conditions: HL-60, 5 h, all tested concentrations
Description: DNA fragmentation induction was determined as described by Anter et al. (2014). […] After treatment, genomic DNA was extracted using a commercial kit (Blood Genomic DNA Extraction Mini Spin Kit, Canvax Biotech, Córdoba, Spain). Then, DNA was incubated overnight with RNase at 37 °C and quantified in a spectrophotometer (Nanodrop® ND-1000, NanoDrop Technologies, Inc., Wilmington, DE, USA). Finally, 1200 ng DNA were electrophoresed in a 2% agarose gel for 120 min at 50 V, stained with ethidium bromide and visualized under UV light. The apoptosis process is recognised by the appearance of internucleosomal DNA fragments that are multiple of 200 base pairs.

HL-60 cells [3] = experiment: Alkaline SCGE (comet assay), Tail Moment; type: cell-based, human; conditions: HL-60, 5 h
Description: DNA integrity was assayed by SCGE as described by Olive and Banáth with minor modifications. […] After treatment, cells were washed twice and adjusted to 6.25 × 10^5 cells/mL in PBS. Electrophoresis gels were prepared pouring a 1:4 dilution (cells in liquid low-melting-point agarose at 40 °C, […], Sigma) into slides. Gels were covered with a coverslip and allowed to solidify at RT for 30 min. Once the slides solidified, the coverslips were carefully removed and slides were bathed in freshly prepared lysing solution (2.5 M NaCl, 100 mM Na-EDTA, 10 mM Tris, 250 mM NaOH, 10% DMSO and 1% Triton X-100; pH = 13) for 1 h at 4 °C. Thereafter, slides were equilibrated in alkaline electrophoresis buffer (300 mM NaOH and 1 mM Na-EDTA, pH = 13) for 20-30 min at 4 °C. Once equilibrated, the slides were underwent electrophoresis (12 V, 400 mA for 8 min) in the dark and were immediately neutralized in cold neutral solution (0.4 M Tris-HCl buffer, pH 7.5) for 10 min. […] Gels were stained with 7 μL propidium iodide and photographed in a DM2500 microscope (Leica Microsystems GmBH, Wetzlar, Germany) at 400× magnification. […] A one-way ANOVA and post-hoc Tukey's test with SPSS Statistics for Windows, Version 19.0 (2010, IBM Corporation, Armonk, NY, USA) was applied to determine the effect of the tested compounds on HL-60 cell DNA integrity from the analyses of Tail Moment (TM) data.

[4] = test system: LINE-1 repetitive sequences of HL-60 cells; experiment: Methylation status by qMSP, LINE-1; type: cell-based, human; conditions: HL-60, 5 h
Description: Then, DNA was extracted similarly to previously described DNA fragmentation assay. After that, the DNA was converted with bisulphite (EZ DNA Methylation-Gold™ Kit, Zymo Research, Irvine, CA, USA). Bisulphite-modified DNA was used for fluorescence-based real-time quantitative Methylation-Specific PCR (qMSP) using 5 µM of each forward and reverse primer (Isogen Life Science BV, Utrecht, The Netherlands), 2 µL of iTaq™ Universal SYBR® Green Supermix (Bio-Rad Laboratories, Inc., Hercules, CA, USA); it contains antibody-mediated hot-start iTaq DNA polymerase, dNTPs, MgCl2, SYBR® Green I dye, enhancers, stabilizers and a blend of passive reference dyes including ROX and fluorescein) and 25 ng of bisulphite converted genomic DNA.
PCR conditions included initial denaturalisation at 95 °C for 3 min and amplification which consisted of 45 cycles at 95 °C for 10 s, 60 °C for 15 s and 72 °C for 15 s, taking picture at the end of each elongation cycle. After that, melting curve was determined increasing 0.5 °C each 0.05 s from 60 °C to 95 °C and taking pictures.
QMSP was carried out in 48 well plates in MiniOpticon Real-Time PCR System (MJ Mini Personal Thermal Cycler, Bio-Rad) and were analysed by Bio-Rad CFX Manager 3.1 Software. The housekeeping Alu-C4 was used as a reference to correct for total DNA input. Alu-C4 and the target repetitive elements Alu-M1, LINE-1 and Sat-α were obtained from Isogen Life Science (Utrecht, The Netherlands) and their sequences are shown in Table 4. Each sample was analysed in triplicate.
The results of each CT were obtained from each qMSP. Data were normalised with the housekeeping Alu C4 using the Nikolaidis et al. and Liloglou et al. comparative CT method (ΔΔCT). One-way ANOVA and post-hoc Tukey’s test are used to evaluate the differences between the tested compounds, repetitive elements and concentrations.

[5] = GLU 11 mM + 0.15 M H2O2, No. of spots in parentheses
[6] = GLU 350 mM + 0.15 M H2O2, No. of spots in parentheses
[7] = TAU 1 mM + 0.15 M H2O2, No. of spots in parentheses
[8] = TAU 32 mM + 0.15 M H2O2, No. of spots in parentheses

Q: Which results are given for `OC[C@H]1OC(O)[C@H](O)[C@@H](O)[C@@H]1O` (stereo partly drawn) [GLU, Glucose]?
A: IP (%) inhibition percentage (Drosophila melanogaster; GLU 11 mM + 0.15 M H2O2): 76.5%; Twin Spots m = 5 (Drosophila melanogaster; GLU 11 mM + 0.15 M H2O2): 0 clones per wing; Large Simple Spots (>2 Cells) m = 5 (Drosophila melanogaster; [5]): 0.025 (1) clones per wing; Small Single Spots (1–2 Cells) m = 2 (Drosophila melanogaster; [5]): 0.075 (3) clones per wing; Total Spots m = 2 (Drosophila melanogaster; [5]): 0.1 (4) clones per wing; Total Spots, statistical diagnosis (Kastenbaum-Bowman test) (Drosophila melanogaster; GLU 11 mM + 0.15 M H2O2 vs positive control): *; IP (%) inhibition percentage (Drosophila melanogaster; GLU 350 mM + 0.15 M H2O2): 52.9%; Twin Spots m = 5 (Drosophila melanogaster; GLU 350 mM + 0.15 M H2O2): 0 clones per wing; Large Simple Spots (>2 Cells) m = 5 (Drosophila melanogaster; [6]): 0.025 (1) clones per wing; Small Single Spots (1–2 Cells) m = 2 (Drosophila melanogaster; [6]): 0.175 (7) clones per wing; Total Spots m = 2 (Drosophila melanogaster; [6]): 0.2 (8) clones per wing; Total Spots, statistical diagnosis (Kastenbaum-Bowman test) (Drosophila melanogaster; GLU 350 mM + 0.15 M H2O2 vs positive control): *; pIC50 (HL-60 cells [1]; Homo sapiens, mean ± SD in Figure 3, read-out: IC50 (inhibitory concentration 50)): 1.37; internucleosomal DNA fragmentation (ladder pattern) (HL-60 cells [2]): did not induce DNA fragmentation; TM versus concurrent control (DNA damage) (HL-60 cells [3]; three lowest concentrations of the cytotoxicity assay): significantly induce TM values higher than the concurrent control; methylation status of LINE elements ([4]; 11 mM GLU): hypomethylated; methylation status of LINE repetitive element ([4]; 350 mM GLU): reduced the methylation status

Q: `NCCS(=O)(=O)O` [TAU, 2-aminoethanesulfonic acid] was tested. Which “IP (%) inhibition percentage” value (Drosophila melanogaster; TAU 1 mM + 0.15 M H2O2) did it give?
A: 70.6%

Q: What about the “Large Simple Spots (>2 Cells) m = 5” value (Drosophila melanogaster; TAU 1 mM + 0.15 M H2O2) of the same compound?
A: 0 clones per wing

Q: What about the “Twin Spots m = 5” value (Drosophila melanogaster; TAU 1 mM + 0.15 M H2O2) of the same compound?
A: 0 clones per wing

Q: What about the “Small Single Spots (1–2 Cells) m = 2” value (Drosophila melanogaster; [7]) of the same compound?
A: 0.125 (5) clones per wing

Q: And the “Total Spots m = 2” value (Drosophila melanogaster; [7])?
A: 0.125 (5) clones per wing

Q: And the “Total Spots, statistical diagnosis (Kastenbaum-Bowman test)” value (Drosophila melanogaster; TAU 1 mM + 0.15 M H2O2 vs positive control)?
A: *

Q: And the “IP (%) inhibition percentage” value (Drosophila melanogaster; TAU 32 mM + 0.15 M H2O2)?
A: 38.1%

Q: And the “Twin Spots m = 5” value (Drosophila melanogaster; TAU 32 mM + 0.15 M H2O2)?
A: 0 clones per wing

Q: And the “Large Simple Spots (>2 Cells) m = 5” value (Drosophila melanogaster; [8])?
A: 0.026 (1) clones per wing

Q: And the “Small Single Spots (1–2 Cells) m = 2” value (Drosophila melanogaster; [8])?
A: 0.236 (9) clones per wing

Q: What about the “Total Spots m = 2” value (Drosophila melanogaster; [8]) of the same compound?
A: 0.263 (10) clones per wing

Q: What about the “Total Spots, statistical diagnosis (Kastenbaum-Bowman test)” value (Drosophila melanogaster; TAU 32 mM + 0.15 M H2O2 vs positive control) of the same compound?
A: *

Q: What about the cell proliferation (HL-60 cells [1]; 2 mM TAU) of the same compound?
A: induced a decrease of cell proliferation

Q: And the cytotoxic activity (HL-60 cells [1]; any assayed concentration)?
A: did not show cytotoxic activity

Q: What about the “IC50 (inhibitory concentration 50)” value (HL-60 cells [1]; mean ± SD in Figure 3) of the same compound?
A: not found

Q: What about the “internucleosomal DNA fragmentation (ladder pattern)” value (HL-60 cells [2]) of the same compound?
A: did not induce DNA fragmentation

Q: What about the “TM versus concurrent control (DNA damage)” value (HL-60 cells [3]; 0.25 and 2 mM TAU) of the same compound?
A: significantly induce TM values higher than the concurrent control

Q: And the “Tail Moment (TM) of representative photograph” value (HL-60 cells [3]; concentration not given)?
A: 2.49

Q: What about the “methylation status of LINE-1” value ([4]; TAU highest concentration (32 mM)) of the same compound?
A: reduced this methylation status; also recorded: induced hypomethylation
